The target of one assay is cerebral receptor sites for benzodiazepines. Briefly: Affinity for the cerebral-type receptor sites for benzodiazepines: displacement of 3H-diazepam on rat brain membranes. The format is binding. The following applies: 3H-diazepam displacement. Here is the method: The affinity of the compounds of formula (I) for the cerebral receptor sites for benzodiazepines was determined, by the method of MOHLER et al, Life Sciences, 1977, 20, 2101, on rat brain membranes.
`CCN(CC)C(=O)c1cc(-c2ccccc2)nc2ccccc12` [Example 1, N,N-diethyl-2-phenylquinoline-4-carboxamide] yielded a Ki of 50 nM. This lies in the double-digit nanomolar range. `CCN(CC)C(=O)c1cc(-c2ccc(C)cc2)nc2ccccc12` [Example 24, N,N-diethyl-2-(4-methylphenyl)-quinoline-4-carboxamide] came in with a Ki of 330 nM. `O=C(c1cc(-c2ccccc2)nc2ccccc12)N1CCCC1` [Example 11, 1-(2-phenylquinolin-4-yl)-carbonylpyrrolidine] gave a Ki of 130 nM. Still for that read-out and setting: under `O=C(c1cc(-c2ccccc2)nc2ccccc12)N1CCCCC1` [Example 4, 1-(2-phenylquinolin-4-yl)-carbonylpiperidine] stands 40 nM; under `O=C1CCN(C(=O)c2nc(-c3ccccc3)nc3ccccc23)CC1` [Example 53, 1-[(2-phenylquinazolin-4-yl)-carbonyl]-piperidin-4-one], 270 nM; under `CCN(CC)C(=O)c1cc(-c2ccc(F)cc2)nc2ccccc12` [Example 10, N,N-diethyl-2-(4-fluorophenyl)-quinoline-4-carboxamide], 210 nM. Same read-out and setting: under `O=C(c1cc(-c2ccccn2)nc2ccccc12)N1CCCCC1` [Example 3, 1-[2-(pyridin-2-yl)-quinolin-4-yl]-carbonylpiperidine] stands 160 nM; under `O=C(c1nc(-c2ccccc2)nc2ccccc12)N1CCCC1` [Example 26, 1-[(2-phenylquinazolin-4-yl)-carbonyl]-pyrrolidine], 90 nM; under `O=C(c1cc(-c2ccccc2)nc2ccccc12)N1CCOCC1` [Example 5, 4-(2-phenylquinolin-4-yl)-carbonylmorpholine], 90 nM. The same measure, in the same setting: next, `CCN(CCC1CCNCC1)C(=O)c1cc(-c2ccccc2)nc2ccccc12` [Example 49, N-ethyl-N-[2-(piperidin-4-yl)-ethyl]-2-phenylquinoline-4-carboxamide]: 400 nM; `CNC1=Nc2ccc(Cl)cc2C(c2ccccc2)=[N+]([O-])C1` [Chlorodiazepoxide, reference compound]: 80 nM; `O=C(c1nc(-c2ccccc2)nc2ccccc12)N1CCCCC1` [Example 27, 1-[(2-phenylquinazolin-4-yl)-carbonyl]-piperidine]: 70 nM. On to `CCN(CC)C(=O)c1cc(-c2ccccc2F)nc2ccccc12` [Example 38, N,N-diethyl-2-(2-fluorophenyl)-quinoline-4-carboxamide], for which the Ki was 310 nM.

Turning to `CCN(CC)C(=O)c1nc(-c2ccccc2)nc2ccccc12` [Example 25, N,N-diethyl-2-phenylquinazoline-4-carboxamide], the inhibitory constant (Ki) came out at 390 nM.

The next assay addresses T1, peripheral-type receptor sites for benzodiazepines (Rattus norvegicus, UniProt P16257).
T1 construct: on rat kidney membranes; from tissue; host or cells: rat kidney membranes
The assay is described as follows: Affinity for the peripheral-type receptor sites for benzodiazepines: displacement of 3H-diazepam on rat kidney membranes. The assay is classed as binding. The following applies: peripheral versus cerebral benzodiazepine receptors. As for the experimental part:
The affinity of the compounds of formula (I) for the peripheral-type receptor sites was determined, using the procedure of BRAESTRUP et al., Proc. Natl. Acad. Sci. U.S.A., 1977, 74, 3805, on rat kidney membranes.
Regarding `CCN(CC)C(=O)c1cc(-c2ccccc2)cc2ccccc12` [Example 20, N,N-diethyl-3-phenylnaphthalene-1-carboxamide], the “preferential action on peripheral receptors (versus cerebral)” value is listed as “act preferentially on peripheral receptors”.

The assay is the same for the next values; noted with them: rat kidney membranes, 3H-diazepam displacement.
In turn, `CCC(C)N(C)C(=O)c1cc(-c2ccccc2Cl)nc2ccccc12` (stereo not drawn) [Example 15, N-methyl-N-(1-methylpropyl)-2-(2-chlorophenyl)-quinoline-4-carboxamide] came in with a Ki of 31 nM. This lies in the double-digit nanomolar range. `CCN(CC)C(=O)c1nc(-c2ccccc2Cl)nc2ccccc12` [Example 22, N,N-diethyl-2-(2-chlorophenyl)-quinazoline-4-carboxamide] came in with a Ki of 270 nM. As for `O=C(c1cc(-c2ccccc2Cl)nc2ccccc12)N1CCCCC1` [Example 18, 1-[2-(2-chlorophenyl)-quinolin-4-yl]-carbonylpiperidine], affinity was put at a Ki of 360 nM.

`CCN(CC)C(=O)c1cc(-c2ccc(F)cc2)nc2ccccc12` [Example 10, N,N-diethyl-2-(4-fluorophenyl)-quinoline-4-carboxamide]: the inhibitory constant (Ki) is 160 nM. Compared with the last compound, the Ki is about 2.2-fold lower. The same measure, in the same setting: under `CCN(CC)C(=O)c1cc(-c2ccccc2Cl)nc2ccccc12` [Example 8, N,N-diethyl-2-(2-chlorophenyl)-quinoline-4-carboxamide] stands 117 nM; under `CCC(C)N(C)C(=O)c1cc(-c2ccccc2)cc2ccccc12` (stereo not drawn) [Example 21, N-methyl-N-(1-methylpropyl)-3-phenylnaphthalene-1-carboxamide], 58 nM; under `CCC(C)N(C)C(=O)c1cc(-c2ccccc2)nc2ccccc12` (stereo not drawn) [Example 43, N-methyl-N-(1-methylpropyl)-2-phenylquinoline-4-carboxamide], 100 nM.

`CC1CCCC(C)N1C(=O)c1cc(-c2ccccc2Cl)nc2ccccc12` (stereo not drawn) [Example 39, 1-{[2-(2-chlorophenyl)-quinolin-4-yl]-carbonyl}-2,6-dimethylpiperidine]: the inhibition constant Ki turned out to be 54 nM. This Ki is about 1.9-fold lower than that of the compound before.

Compound `CCN(CC)C(=O)c1cc(-c2ccc(Cl)c(Cl)c2)nc2ccccc12` [Example 37, N,N-diethyl-2-(3,4-dichlorophenyl)-quinoline-4-carboxamide] came in with a Ki of 117 nM. This Ki is about 2.2-fold higher than that of the compound before. For `CCC(C)N(CC)C(=O)c1cc(-c2ccccc2Cl)nc2ccccc12` (stereo not drawn) [Example 17, N-ethyl-N-(1-methylpropyl)-2-(2-chlorophenyl)-quinoline-4-carboxamide], the Ki came to 9 nM. Still for that read-out and setting: under `CCN(CC)C(=O)c1cc(-c2ccccc2)cc2ccccc12` [Example 20, N,N-diethyl-3-phenylnaphthalene-1-carboxamide] stands 2 nM. Turning to `CCC(C)N(C)C(=O)c1nc(-c2ccccc2)cc2ccccc12` (stereo not drawn) [Example 51, N-methyl-N-(1-methylpropyl)-3-phenylisoquinoline-1-carboxamide], the Ki came out at 45 nM. For the compound `CCC(C)N(C(=O)c1cc(-c2ccccc2Cl)nc2ccccc12)C(C)CC` (stereo not drawn) [Example 16, N,N-di-(1-methylpropyl)-2-(2-chlorophenyl)-quinoline-4-carboxamide], affinity was put at a Ki of 72 nM.

System in a further assay: not given
Test: not given
The following applies: GHAZAL et al., Egypt. Pharm. Bull., 1960, 42, 465; cited from earlier work.
With `CCN(CC)C(=O)c1cc(-c2ccccc2)nc2ccccc12` [Example 1, N,N-diethyl-2-phenylquinoline-4-carboxamide], the “pharmacological properties described in the literature” value was “uricosuric and anti-pyretic properties”.

For a further assay, the system named is binding sites for [^3 H] diazepam in the kidneys.
Test: not given
To be noted: kidneys / peripheral level, [3H] diazepam sites; cited from earlier work.
For `O=C1CN=C(c2ccccc2Cl)c2cc([N+](=O)[O-])ccc2N1` [clonazepam], the “affinity / activity at kidney (peripheral) binding sites, in words” value is “virtually inactive”. Turning to `CN1C(=O)CN=C(c2ccc(Cl)cc2)c2cc(Cl)ccc21` [Ro-5-4864, 7-chloro-5-(p-chlorophenyl)-1,3-dihydro-1-methyl-2H-1,4-benzodiazepin-2-one], the “affinity / activity at kidney (peripheral) binding sites, in words” value is “very active”.

The subject of another assay is binding sites for [^3 H] diazepam in the brain.
Test: not given
To be noted: [3H] diazepam sites; cited from earlier work.
Turning to `O=C1CN=C(c2ccccc2Cl)c2cc([N+](=O)[O-])ccc2N1` [clonazepam], the “affinity / activity at brain (central) binding sites, in words” value is reported as “very strong affinity”.

For `CN1C(=O)CN=C(c2ccc(Cl)cc2)c2cc(Cl)ccc21` [Ro-5-4864, 7-chloro-5-(p-chlorophenyl)-1,3-dihydro-1-methyl-2H-1,4-benzodiazepin-2-one], the “affinity / activity at brain (central) binding sites, in words” value is “inactive”.

These data come from patent US4711890A, “Pharmaceutical compositions containing azanaphthalene-carboxamide derivatives, azanaphthalene-carboxamide derivatives and process for their use” (Rhone-Poulenc Sante, priority 1982, dated 1987).
